According to US8445503B2, “Inhibitors of polo-like kinase” (Elan Pharmaceuticals, Inc., priority 2009, dated 2013):

Legend:
PLK2 = PLK2 (Homo sapiens, UniProt Q9NYY3); experiment: Kinase panel screening at InVitrogen Corporation, PLK2; details: screening at 10 μM compound
PLK1 = PLK1 (Homo sapiens, UniProt P53350); experiment: Kinase panel screening at InVitrogen Corporation, PLK1; details: screening at 10 μM compound
GST-PLK1 = GST-PLK1 (Homo sapiens, UniProt P53350); experiment: PLK TR-FRET peptide assay, PLK1; type: biochemical; details: read-out: Plk1 IC50
GST-PLK1, sequence (P53350 whole entry): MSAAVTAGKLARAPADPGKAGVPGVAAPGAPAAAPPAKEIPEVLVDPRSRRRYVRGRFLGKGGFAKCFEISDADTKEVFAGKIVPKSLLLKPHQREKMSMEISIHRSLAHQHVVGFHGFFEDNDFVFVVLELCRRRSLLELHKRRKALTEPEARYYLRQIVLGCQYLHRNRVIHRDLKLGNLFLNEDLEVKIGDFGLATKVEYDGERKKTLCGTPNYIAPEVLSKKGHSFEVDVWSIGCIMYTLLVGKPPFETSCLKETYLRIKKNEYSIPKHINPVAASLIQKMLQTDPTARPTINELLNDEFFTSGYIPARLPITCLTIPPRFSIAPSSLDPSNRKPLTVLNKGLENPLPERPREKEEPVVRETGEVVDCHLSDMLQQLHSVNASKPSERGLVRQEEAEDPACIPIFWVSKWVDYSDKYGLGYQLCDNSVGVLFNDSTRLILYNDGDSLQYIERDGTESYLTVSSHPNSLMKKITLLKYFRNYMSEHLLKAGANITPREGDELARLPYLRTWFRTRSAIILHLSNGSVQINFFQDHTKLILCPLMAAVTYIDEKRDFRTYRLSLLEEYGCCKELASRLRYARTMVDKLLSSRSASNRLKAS

GST-PLK2 = molecular target: T1, GST-PLK2 (Homo sapiens, UniProt Q9NYY3); experiment: PLK TR-FRET peptide assay, PLK2; type: biochemical; details: for IC50: PLK TR-FRET peptide assay, GST-PLK2, read-out: Plk2 IC50; for PLK2 activity relative to the opposite enantiomer / other isomer: comparison of resolved enantiomers, used to assign absolute configuration
T1 construct: purchased CarnaBio
T1 sequence (Q9NYY3 whole entry): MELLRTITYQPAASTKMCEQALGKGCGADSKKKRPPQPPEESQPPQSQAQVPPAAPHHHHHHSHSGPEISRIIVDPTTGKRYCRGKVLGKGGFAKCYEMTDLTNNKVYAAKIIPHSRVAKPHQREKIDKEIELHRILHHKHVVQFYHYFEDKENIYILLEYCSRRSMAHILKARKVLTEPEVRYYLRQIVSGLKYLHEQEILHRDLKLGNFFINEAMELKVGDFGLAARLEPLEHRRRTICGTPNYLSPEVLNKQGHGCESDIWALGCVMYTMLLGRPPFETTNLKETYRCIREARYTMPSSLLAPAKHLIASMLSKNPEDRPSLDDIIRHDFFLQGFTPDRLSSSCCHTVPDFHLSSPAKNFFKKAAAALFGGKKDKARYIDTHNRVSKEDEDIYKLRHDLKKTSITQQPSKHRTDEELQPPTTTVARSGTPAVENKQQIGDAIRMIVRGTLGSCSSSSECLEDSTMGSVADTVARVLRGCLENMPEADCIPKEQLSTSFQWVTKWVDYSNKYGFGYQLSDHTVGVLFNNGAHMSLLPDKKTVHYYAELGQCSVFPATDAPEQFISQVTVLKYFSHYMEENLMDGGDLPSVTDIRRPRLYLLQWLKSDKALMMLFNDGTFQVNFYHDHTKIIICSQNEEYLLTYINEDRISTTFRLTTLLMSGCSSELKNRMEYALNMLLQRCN

GST-PLK3 = molecular target: T2, GST-PLK3 (Homo sapiens, UniProt Q9H4B4); experiment: PLK TR-FRET peptide assay, PLK3; type: biochemical; details: PLK TR-FRET peptide assay, GST-PLK3; read-out: Plk3 IC50
T2 construct: purchased CarnaBio
T2 sequence (Q9H4B4 whole entry): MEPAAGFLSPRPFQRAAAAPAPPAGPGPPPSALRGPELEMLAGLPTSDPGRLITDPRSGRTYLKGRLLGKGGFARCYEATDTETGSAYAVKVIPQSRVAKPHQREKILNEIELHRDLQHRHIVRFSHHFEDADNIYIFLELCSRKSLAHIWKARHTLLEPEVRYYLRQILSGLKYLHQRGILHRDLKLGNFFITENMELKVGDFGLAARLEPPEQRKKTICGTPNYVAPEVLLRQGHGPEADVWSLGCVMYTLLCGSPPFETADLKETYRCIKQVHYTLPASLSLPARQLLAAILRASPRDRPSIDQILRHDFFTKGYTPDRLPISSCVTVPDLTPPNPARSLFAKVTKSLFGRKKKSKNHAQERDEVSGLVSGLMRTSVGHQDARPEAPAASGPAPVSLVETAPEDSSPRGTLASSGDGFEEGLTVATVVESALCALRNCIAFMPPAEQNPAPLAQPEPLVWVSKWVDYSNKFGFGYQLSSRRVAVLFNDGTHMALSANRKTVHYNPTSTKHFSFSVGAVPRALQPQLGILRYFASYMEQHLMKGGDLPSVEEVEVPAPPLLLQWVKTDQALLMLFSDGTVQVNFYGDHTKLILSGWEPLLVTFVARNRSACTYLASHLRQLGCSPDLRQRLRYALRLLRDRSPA

KDR = KDR (Homo sapiens, UniProt P35968); experiment: Kinase panel screening and titration, KDR
KDR, sequence (P35968 20-1356): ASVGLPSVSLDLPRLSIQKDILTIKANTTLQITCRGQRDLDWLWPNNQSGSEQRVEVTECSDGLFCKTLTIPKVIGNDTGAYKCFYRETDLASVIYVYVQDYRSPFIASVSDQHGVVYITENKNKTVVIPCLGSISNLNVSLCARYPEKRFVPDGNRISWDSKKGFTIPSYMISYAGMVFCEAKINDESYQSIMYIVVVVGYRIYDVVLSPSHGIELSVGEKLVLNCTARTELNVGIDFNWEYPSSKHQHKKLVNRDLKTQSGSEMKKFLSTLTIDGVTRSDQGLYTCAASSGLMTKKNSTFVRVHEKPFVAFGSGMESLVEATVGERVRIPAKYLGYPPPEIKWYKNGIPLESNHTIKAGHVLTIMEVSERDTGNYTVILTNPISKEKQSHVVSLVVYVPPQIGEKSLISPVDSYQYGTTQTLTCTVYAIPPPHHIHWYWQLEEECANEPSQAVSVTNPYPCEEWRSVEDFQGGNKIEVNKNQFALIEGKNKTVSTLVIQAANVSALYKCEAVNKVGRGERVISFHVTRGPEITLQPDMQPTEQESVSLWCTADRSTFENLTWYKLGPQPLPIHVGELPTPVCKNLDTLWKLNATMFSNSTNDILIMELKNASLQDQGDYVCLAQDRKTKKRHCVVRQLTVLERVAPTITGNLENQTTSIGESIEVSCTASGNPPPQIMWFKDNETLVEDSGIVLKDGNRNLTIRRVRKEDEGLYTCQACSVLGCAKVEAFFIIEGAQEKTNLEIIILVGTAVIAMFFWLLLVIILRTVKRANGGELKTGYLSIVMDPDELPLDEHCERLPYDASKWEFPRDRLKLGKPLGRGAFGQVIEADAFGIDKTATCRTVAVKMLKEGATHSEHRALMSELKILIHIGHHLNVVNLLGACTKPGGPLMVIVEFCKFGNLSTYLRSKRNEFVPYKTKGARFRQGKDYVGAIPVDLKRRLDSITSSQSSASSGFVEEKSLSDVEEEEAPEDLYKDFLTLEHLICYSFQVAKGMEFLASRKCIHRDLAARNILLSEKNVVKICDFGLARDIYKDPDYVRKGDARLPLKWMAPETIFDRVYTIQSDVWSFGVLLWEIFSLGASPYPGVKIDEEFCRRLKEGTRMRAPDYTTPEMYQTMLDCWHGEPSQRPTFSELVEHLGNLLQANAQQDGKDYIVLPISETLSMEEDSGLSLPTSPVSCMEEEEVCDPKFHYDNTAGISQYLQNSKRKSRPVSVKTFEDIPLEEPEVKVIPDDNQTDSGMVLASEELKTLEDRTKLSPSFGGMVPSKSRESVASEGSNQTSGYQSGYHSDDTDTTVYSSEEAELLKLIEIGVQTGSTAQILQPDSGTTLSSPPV

ABL1 = ABL1 (Homo sapiens, UniProt P00519); experiment: Kinase panel screening and titration, ABL1
ABL1, sequence (P00519 whole entry): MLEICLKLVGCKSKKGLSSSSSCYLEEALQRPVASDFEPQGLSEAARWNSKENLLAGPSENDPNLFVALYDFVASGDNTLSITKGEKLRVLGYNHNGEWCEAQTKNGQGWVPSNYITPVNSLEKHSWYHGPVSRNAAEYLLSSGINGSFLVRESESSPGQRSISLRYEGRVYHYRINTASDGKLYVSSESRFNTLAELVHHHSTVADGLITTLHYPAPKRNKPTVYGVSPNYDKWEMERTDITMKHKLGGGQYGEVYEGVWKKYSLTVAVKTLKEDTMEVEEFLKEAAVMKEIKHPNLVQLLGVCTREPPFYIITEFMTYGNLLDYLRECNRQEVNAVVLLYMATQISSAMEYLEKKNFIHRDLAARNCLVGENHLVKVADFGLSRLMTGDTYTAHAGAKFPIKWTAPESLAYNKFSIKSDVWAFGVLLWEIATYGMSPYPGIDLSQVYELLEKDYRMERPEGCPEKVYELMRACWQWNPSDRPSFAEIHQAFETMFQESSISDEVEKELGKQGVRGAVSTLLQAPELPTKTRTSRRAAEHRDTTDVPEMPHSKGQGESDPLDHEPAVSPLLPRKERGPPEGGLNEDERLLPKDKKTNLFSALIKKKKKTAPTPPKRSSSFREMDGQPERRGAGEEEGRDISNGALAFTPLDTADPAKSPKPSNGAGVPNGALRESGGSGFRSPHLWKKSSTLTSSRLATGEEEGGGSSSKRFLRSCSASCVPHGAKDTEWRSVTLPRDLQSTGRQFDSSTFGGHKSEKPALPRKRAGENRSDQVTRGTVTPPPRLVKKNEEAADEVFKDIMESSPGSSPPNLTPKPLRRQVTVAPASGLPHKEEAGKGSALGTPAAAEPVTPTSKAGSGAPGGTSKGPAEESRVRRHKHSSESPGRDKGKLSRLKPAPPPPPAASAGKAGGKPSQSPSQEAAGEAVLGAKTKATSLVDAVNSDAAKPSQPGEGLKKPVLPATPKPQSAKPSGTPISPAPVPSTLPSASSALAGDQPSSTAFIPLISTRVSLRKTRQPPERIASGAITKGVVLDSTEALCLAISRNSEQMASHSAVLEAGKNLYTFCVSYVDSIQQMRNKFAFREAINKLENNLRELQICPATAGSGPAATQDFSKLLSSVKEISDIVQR

[1] = system: over 300 kinases, including CDK-1, CDK-2, CDK-5, CLK-1, CLK-2, CLK-3, CLK-4, NEK-1, NEK-2, NEK-4, NEK-6, NEK-7, MAP4K4 and STK16; experiment: Kinase panel screening at InVitrogen Corporation, over 300 kinases; details: 10 μM compound; all but 21 of over 300 kinases, including CDK-1, CDK-2, CDK-5, CLK-1 to CLK-4, NEK-1, -2, -4, -6, -7, MAP4K4, STK16

PLK2, sequence (Q9NYY3 whole entry): as the sequence (Q9NYY3 whole entry) above
PLK1, sequence (P53350 whole entry): as the sequence (P53350 whole entry) above

Row | SMILES | IC50 (GST-PLK1) [µM] | IC50 (GST-PLK2) [nM] | IC50 (GST-PLK3) [µM] | also measured
1 | CC[C@@H]1C(=O)N(C)c2cnc(-n3ccnc3-c3ccccc3)nc2N1C1CCCC1 [Example 26, (R)-8-cyclopentyl-7-ethyl-5-methyl-2-(2-phenyl-1H-imidazol-1-yl)-7,8-dihydropteridin-6(5H)-one] |  |  |  | activity against PLK2 in kinase panel (PLK2): potent
2 | CC[C@@H]1C(=O)N(C)c2cnc(-n3ccnc3-c3cscn3)nc2N1C1CCCC1 [Example 68] |  |  |  | activity against PLK1 in kinase panel (PLK1): potent; activity against PLK2 in kinase panel (PLK2): potent
3 | CC[C@@]12CCCN1c1nc(-n3ccnc3-c3ccccc3)ncc1N(C)C2=O [Example 76, (S)-6a-ethyl-5-methyl-2-(2-phenyl-1H-imidazol-1-yl)-6a,7,8,9-tetrahydropyrrolo[2,1-h]pteridin-6(5H)-one] | 10 to 50 | < 1000 | 1 to 10 | activity against PLK1 in kinase panel (PLK1): potent; activity against PLK2 in kinase panel (PLK2): potent
4 | CC[C@@H]1C(=O)N(C)c2cnc(-n3ccnc3-c3cccc(F)c3)nc2N1C1CCOC1 (stereo partly drawn) [Example 192] |  |  |  | percent inhibition of KDR (KDR; 10 μM compound): greater than 80%; IC50 (KDR; read-out: IC50 KDR, when titrated): > 10 µM; percent inhibition of ABL1 (ABL1; 10 μM compound): greater than 80%; IC50 (ABL1; read-out: IC50 ABL1, when titrated): > 10 µM; activity against PLK1 in kinase panel (PLK1): potent; activity against PLK2 in kinase panel (PLK2): potent; percent inhibition of kinase [1]: below 40%
5 | CCC1C(=O)N(C)c2cnc(-c3cn[nH]c3-c3nccs3)nc2N1c1cnn(CC2CC2)c1 (stereo not drawn) [Example 400, 8-(1-(cyclopropylmethyl)-1H-pyrazol-4-yl)-7-ethyl-5-methyl-2-(5-(thiazol-2-yl)-1H-pyrazol-4-yl)-7,8-dihydropteridin-6(5H)-one] | 1 to 10 | < 1000 | 1 to 10 | 
6 | CC[C@@]12COCCN1c1nc(-c3cccnc3-c3ccccc3)ncc1N(C)C2=O [Example 403, (S)-6a-ethyl-5-methyl-2-(2-phenylpyridin-3-yl)-6a,7,9,10-tetrahydro-[1,4]oxazino[3,4-h]pteridin-6(5H)-one] | 10 to 50 | < 1000 | 1 to 10 | 
7 | CC[C@]12COCCN1c1nc(-c3cccnc3-c3ccccc3)ncc1N(C)C2=O [Example 404] | > 50 | > 50000 | > 50 | 
8 | CC[C@@H]1C(=O)N(C)c2cnc(-n3ccnc3-c3ccc(F)cc3)nc2N1c1ccn(C)n1 [Example 407, (R)-7-ethyl-2-(2-(4-fluorophenyl)-1H-imidazol-1-yl)-5-methyl-8-(1-methyl-1H-pyrazol-3-yl)-7,8-dihydropteridin-6(5H)-one] | 1 to 10 | < 1000 | 1 to 10 | PLK2 activity relative to the opposite enantiomer / other isomer (GST-PLK2): more active compound
9 | CC[C@H]1C(=O)N(C)c2cnc(-n3ccnc3-c3ccc(F)cc3)nc2N1c1ccn(C)n1 [Example 408, (S)-7-ethyl-2-(2-(4-fluorophenyl)-1H-imidazol-1-yl)-5-methyl-8-(1-methyl-1H-pyrazol-3-yl)-7,8-dihydropteridin-6(5H)-one] | > 50 | 1000 to 10000 | > 50 | 
10 | CC[C@@H]1C(=O)N(C)c2cnc(-n3ccnc3-c3ccccc3)nc2N1c1cnn(C)c1 [Example 409, (R)-7-ethyl-5-methyl-8-(1-methyl-1H-pyrazol-4-yl)-2-(2-phenyl-1H-imidazol-1-yl)-7,8-dihydropteridin-6(5H)-one] | < 1 | < 1000 | 1 to 10 | PLK2 activity relative to the opposite enantiomer / other isomer (GST-PLK2): more active compound
11 | CC[C@H]1C(=O)N(C)c2cnc(-n3ccnc3-c3ccccc3)nc2N1c1cnn(C)c1 [Example 410, (S)-7-ethyl-5-methyl-8-(1-methyl-1-pyrazol-4-yl)-2-(2-phenyl-1H-imidazol-1-yl)-7,8-dihydropteridin-6(5H)-one] | > 50 | > 50000 | > 50 | 
12 | CC[C@@]12COCCN1c1nc(-c3cn[nH]c3-c3ccc(F)cc3F)ncc1N(C)C2=O [Example 411, (S)-2-(5-(2,4-difluorophenyl)-1H-pyrazol-4-yl)-6a-ethyl-5-methyl-6a,7,9,10-tetrahydro-[1,4]oxazino[3,4-h]pteridin-6(5H)-one] | 10 to 50 | < 1000 | 1 to 10 | PLK2 activity relative to the opposite enantiomer / other isomer (GST-PLK2): more active compound
13 | CC[C@]12COCCN1c1nc(-c3cn[nH]c3-c3ccc(F)cc3F)ncc1N(C)C2=O [Example 412, (R)-2-(5-(2,4-difluorophenyl)-1H-pyrazol-4-yl)-6a-ethyl-5-methyl-6a,7,9,10-tetrahydro-[1,4]oxazino[3,4-h]pteridin-6(5H)-one] | > 50 | 1000 to 10000 | > 50 | 
14 | CC[C@@]12COCCN1c1nc(-c3cnoc3-c3ccccc3)ncc1N(C)C2=O [Example 413, (S)-6a-ethyl-5-methyl-2-(5-phenylisoxazol-4-yl)-6a,7,9,10-tetrahydro-[1,4]oxazino[3,4-h]pteridin-6(5H)-one] | 10 to 50 | < 1000 | 10 to 50 | 
15 | CC[C@]12COCCN1c1nc(-c3cnoc3-c3ccccc3)ncc1N(C)C2=O [Example 414, (R)-6a-ethyl-5-methyl-2-(5-phenylisoxazol-4-yl)-6a,7,9,10-tetrahydro-[1,4]oxazino[3,4-h]pteridin-6(5H)-one] | > 50 | > 50000 | > 50 | 
16 | CC[C@@]12COCCN1c1nc(-c3snnc3-c3ccc(F)cn3)ncc1N(C)C2=O [Example 415, (S)-6a-ethyl-2-(4-(5-fluoropyridin-2-yl)-1,2,3-thiadiazol-5-yl)-5-methyl-6a,7,9,10-tetrahydro-[1,4]oxazino[3,4-h]pteridin-6(5H)-one] | > 50 | 1000 to 10000 | > 50 | 
17 | CC[C@]12COCCN1c1nc(-c3snnc3-c3ccc(F)cn3)ncc1N(C)C2=O [Example 416, (R)-6a-ethyl-2-(4-(5-fluoropyridin-2-yl)-1,2,3-thiadiazol-5-yl)-5-methyl-6a,7,9,10-tetrahydro-[1,4]oxazino[3,4-h]pteridin-6(5H)-one] | > 50 | 10000 to 50000 | > 50 | 
18 | CC[C@@H]1C(=O)N(C)c2cnc(-c3cn(C)nc3-c3nccs3)nc2N1c1cnn(C)c1 [Example 417, (R)-7-ethyl-5-methyl-8-(1-methyl-1H-pyrazol-4-yl)-2-(1-methyl-3-(thiazol-2-yl)-1H-pyrazol-4-yl)-7,8-dihydropteridin-6(5H)-one] | 10 to 50 | < 1000 | > 50 | 
19 | CCC1C(=O)N(C)c2cnc(-c3c[nH]nc3-c3ccc(F)cc3F)nc2N1c1ccn(C)n1 (stereo not drawn) [Example 420, 2-(3-(2,4-difluorophenyl)-1H-pyrazol-4-yl)-7-ethyl-5-methyl-8-(1-methyl-1H-pyrazol-3-yl)-7,8-dihydropteridin-6(5H)-one] | < 1 | < 1000 | < 1 | 
